In brackets after ≈: the same amount, converted by molar mass.
Key:
Type in all cases: functional, organism-based
[1] = tested on: Plasmodium falciparum; test: Antimalarial activity against Plasmodium falciparum K1 by [3H]-hypoxanthine incorporation assay
[2] = tested on: Plasmodium falciparum; test: Antimalarial activity against Plasmodium falciparum D6
[3] = tested on: Plasmodium falciparum; test: Antimalarial activity against Plasmodium falciparum W2
[4] = tested on: Plasmodium falciparum; test: Antimalarial activity against Plasmodium falciparum K1
[5] = tested on: Plasmodium falciparum; test: Antimalarial activity against Plasmodium falciparum HB3
[6] = tested on: Plasmodium falciparum; test: Antimalarial activity against Plasmodium falciparum W2 after 24 hrs by in presence of [3H]hypoxanthine
[7] = tested on: Plasmodium falciparum; test: Antimalarial activity against Plasmodium falciparum D6 after 24 hrs by in presence of [3H]hypoxanthine
[8] = tested on: Plasmodium falciparum; test: Antimalarial activity against Plasmodium falciparum NF54 after 48 hrs by spectrophotometric analysis; details: NF54, 48 h
[9] = tested on: Plasmodium falciparum; test: Antimalarial activity against blood stages of chloroquine-resistant Plasmodium falciparum K1

C[C@@H]1CC[C@H]2[C@H](C[C@@]3(CCCCCCC4C(=O)O[C@@H]5O[C@]6(C)CC[C@H]7[C@H](C)CC[C@@H]4[C@@]57OO6)C(=O)O[C@@H]4O[C@]5(C)CC[C@H]6[C@H](C)CC[C@@H]3[C@@]46OO5)C(=O)O[C@@H]3O[C@]4(C)CC[C@@H]1[C@]32OO4 (some centres undefined)
EC50 [1]: 2.4 nM

C[C@H]1[C@@H](CCO)O[C@@H]2O[C@]3(C)CC[C@H]4[C@H](C)CC[C@@H]1[C@@]24OO3
IC50 [2]: 0.34 ng/mL (≈ 1.09 nM) | IC50 [3]: 0.18 ng/mL (≈ 0.576 nM)

C[C@H]1[C@@H](OCc2ccc(CO)cc2)O[C@@H]2O[C@]3(C)CC[C@H]4[C@H](C)CC[C@@H]1[C@@]24OO3
IC50 [4]: 4.4 nM | IC50 [5]: 4.2 nM

COC(=O)CC[C@H](OC1O[C@@H]2O[C@]3(C)CC[C@H]4[C@H](C)CC[C@@H]([C@H]1C)[C@@]24OO3)c1ccc(Cl)cc1 (some centres undefined)
IC50 [2]: 0.903 ng/mL (≈ 1.82 nM) | IC50 [3]: 0.794 ng/mL (≈ 1.6 nM)

C[C@@H]1CC[C@H]2[C@](C)(Br)[C@@H](Nc3ncccn3)O[C@@H]3O[C@]4(C)CC[C@@H]1[C@]32OO4
IC50 [2]: 26 ng/mL (≈ 59 nM) | IC50 [3]: 5.56 ng/mL (≈ 12.6 nM)

C[C@H]1[C@@H](O[C@H](C)CC(=O)O)O[C@@H]2O[C@]3(C)CC[C@H]4[C@H](C)CC[C@@H]1[C@@]24OO3
IC50 [6]: 4.42 ng/mL | IC50 [7]: 36.5 ng/mL

C[C@@H]1CC[C@H]2[C@@H](C)C(OC(=O)c3ccc([N+](=O)[O-])cc3)O[C@@H]3O[C@]4(C)CC[C@@H]1[C@]32OO4 (some centres undefined)
IC50 [8]: 8.54 nM

C[C@@H]1CC[C@@H]2[C@]34OO[C@@](C)(CC[C@@H]13)O[C@H]4OC(OCc1ccc3c(c1)OCO3)[C@]2(C)O (some centres undefined)
IC50 [8]: 110 nM

COC(=O)C[C@H](C)O[C@H]1O[C@@H]2O[C@]3(C)CC[C@H]4[C@H](C)CC[C@@H]([C@H]1C)[C@@]24OO3
IC50 [6]: 0.48 ng/mL | IC50 [7]: 1.19 ng/mL

C[C@@H]1CC[C@H]2[C@@H](C)C(OC(=O)c3cccc4c3OCO4)O[C@@H]3O[C@]4(C)CC[C@@H]1[C@]32OO4 (some centres undefined)
IC50 [8]: 8.08 nM

C[C@H]1[C@@H](OCc2ccc(CN3CCCCC3)cc2)O[C@@H]2O[C@]3(C)CC[C@H]4[C@H](C)CC[C@@H]1[C@@]24OO3
IC50 [4]: 9.8 nM | IC50 [5]: 12.2 nM

C[C@@H]1CC[C@H]2[C@](C)(Br)[C@@H](Nc3ccccn3)O[C@@H]3O[C@]4(C)CC[C@@H]1[C@]32OO4
IC50 [2]: 7.72 ng/mL (≈ 17.6 nM) | IC50 [3]: 1.19 ng/mL (≈ 2.71 nM)

C[C@H]1[C@@H](O[C@@H](C)CC(=O)O)O[C@@H]2O[C@]3(C)CC[C@H]4[C@H](C)CC[C@@H]1[C@@]24OO3
IC50 [6]: 7.43 ng/mL | IC50 [7]: 15 ng/mL

COC(=O)C[C@@H](C)O[C@H]1O[C@@H]2O[C@]3(C)CC[C@H]4[C@H](C)CC[C@@H]([C@H]1C)[C@@]24OO3
IC50 [6]: 0.071 ng/mL | IC50 [7]: 0.44 ng/mL

C[C@@H]1CC[C@H]2[C@H](C[C@@]3(CCCCCCC[C@]4(C[C@H]5C(=O)O[C@@H]6O[C@]7(C)CC[C@H]8[C@H](C)CC[C@@H]5[C@@]68OO7)C(=O)O[C@@H]5O[C@]6(C)CC[C@H]7[C@H](C)CC[C@@H]4[C@@]57OO6)C(=O)O[C@@H]4O[C@]5(C)CC[C@H]6[C@H](C)CC[C@@H]3[C@@]46OO5)C(=O)O[C@@H]3O[C@]4(C)CC[C@@H]1[C@]32OO4
EC50 [1]: 20 nM

COC(=O)CC[C@@H](OC1O[C@@H]2O[C@]3(C)CC[C@H]4[C@H](C)CC[C@@H]([C@H]1C)[C@@]24OO3)c1ccc(Cl)cc1 (some centres undefined)
IC50 [2]: 0.727 ng/mL (≈ 1.47 nM) | IC50 [3]: 0.629 ng/mL (≈ 1.27 nM)

C[C@@H]1CC[C@H]2[C@@H](C)C(O)O[C@@H]3C[C@]4(C)CC[C@@H]1[C@]32OO4 (some centres undefined)
IC50 [9]: 0.69 ng/mL (≈ 2.44 nM)

C[C@H]1[C@@H](OCc2ccc(C(=O)O)cc2)O[C@@H]2C[C@]3(C)CC[C@H]4[C@H](C)CC[C@@H]1[C@@]24OO3
IC50 [9]: 1.38 ng/mL (≈ 3.31 nM)

C[C@@H]1CC[C@@H]2[C@]34OO[C@@](C)(CC[C@@H]13)O[C@H]4OC(OCC1CC1)[C@]2(C)O (some centres undefined)
IC50 [8]: 158 nM

C[C@H]1[C@@H](OC2O[C@H](CO)[C@@H](O)[C@H](O)[C@H]2O)O[C@@H]2O[C@]3(C)CC[C@H]4[C@H](C)CC[C@@H]1[C@@]24OO3 (some centres undefined)
IC50 [6]: 34.1 ng/mL | IC50 [7]: 122 ng/mL

CCNCCO[C@H]1O[C@@H]2O[C@]3(C)CC[C@H]4[C@H](C)CC[C@@H]([C@H]1C)[C@@]24OO3
IC50 [4]: 4.1 nM | IC50 [5]: 4.1 nM

COC(=O)CC[C@H](OC1O[C@@H]2O[C@]3(C)CC[C@H]4[C@H](C)CC[C@@H]([C@H]1C)[C@@]24OO3)c1ccc(F)cc1 (some centres undefined)
IC50 [2]: 0.616 ng/mL (≈ 1.29 nM) | IC50 [3]: 0.488 ng/mL (≈ 1.02 nM)

COC(=O)CC[C@@H](OC1O[C@@H]2O[C@]3(C)CC[C@H]4[C@H](C)CC[C@@H]([C@H]1C)[C@@]24OO3)c1ccc(F)cc1 (some centres undefined)
IC50 [2]: 0.43 ng/mL (≈ 0.9 nM) | IC50 [3]: 0.398 ng/mL (≈ 0.832 nM)

CC1CCC2C(CCCCCCC[C@]3(C[C@@H]4C(=O)O[C@@H]5O[C@]6(C)CC[C@H]7[C@H](C)CC[C@@H]4[C@@]57OO6)C(=O)O[C@@H]4O[C@]5(C)CC[C@H]6[C@H](C)CC[C@@H]3[C@@]46OO5)C(O)OC3OC4(C)CCC1C32OO4 (some centres undefined)
EC50 [1]: 3.1 nM

Source: ChEMBL document CHEMBL4616581, “Current scenario of artemisinin and its analogues for antimalarial activity” (Eur J Med Chem, 2019)
